Key:
Assay type in all cases: cell-based
PKA = biological target: T1, PKA (Homo sapiens, UniProt P17612); experiment: Multiplexed biosensor imaging in HEK293T cells: PKA activity (red/far-red HaloTag-AKAR); conditions: HEK293T cells co-expressing yellow/far-red HaloTag-EKAR and red/far-red HaloTag-AKAR; 100 ng/mL hEGF; Fsk and 100 μM IBMX together; M H89
T1 construct: endogenous in cells; host or cells: HEK293T; only the biosensors are transfected
Method: (§1) Cell culture and transfection HeLa and HEK293T cells were cultured in Dulbecco's modified Eagle medium (DMEM; Gibco) containing glucose (1 g/L) and supplemented with 10% (v/v) fetal bovine serum (Sigma-Aldrich) and 1% (v/v) penicillin-streptomycin (Pen-Strep; Sigma-Aldrich). NIH3T3 cells were cultured in DMEM (Gibco) containing glucose (1 g/L) and supplemented with 10% (v/v) fetal calf serum and 1% (v/v) Pen-Strep (Sigma-Aldrich). All cells were maintained in a humidified incubator at 37° C. with a 5% CO2 atmosphere. Before transfection, cells were plated onto sterile quartered 35-mm glass-bottomed dishes and grown to 50 to 70% confluence. Cells were then transfected using Lipofectamine 2000 (Invitrogen, HeLa) or PolyJet (SignaGen Laboratories, HEK293T and NIH3T3) and grown an additional 48 hours (HeLa, HEK293T) before imaging. NIH3T3 cells were changed to serum-free DMEM immediately before transfection, medium was changed to complete medium after 6 h. NIH3T3 cells were then serum-starved for 24 hours before imaging. HaloTag labeling was performed 24 h before imaging using synthetic fluorophores (Fluorophore-CA 500 nM, 24 h, 37° C.) in the respective medium. Synthetic fluorophores were kindly provided by Luke Lavis (Janelia Research Campus, JF669-CA, JFX646-CA and JF635) or Kai Johnsson (Max Planck Institute for Medical Research (Germany) and EPFL (Switzerland), NGD-CA). […]

ERK = experiment: Multiplexed biosensor imaging in HEK293T cells: ERK activity (yellow/far-red HaloTag-EKAR); conditions: HEK293T cells co-expressing yellow/far-red HaloTag-EKAR and red/far-red HaloTag-AKAR; 100 ng/mL hEGF
Method: as §1

protein kinase A (PKA) = experiment: FRET-based AKAR imaging of PKA activity in HeLa cells upon Fsk/IBMX stimulation
Description: In order to generate KARs that are both bright and photostable, we replaced one of the FPs in the prototypic FRET-based A kinase activity reporter AKAR4 with the self-labeling protein tag HaloTag, which can be flexibly labeled with synthetic fluorophores in different spectral regions. Here, we used a specific green-yellow HaloTag fluorophore (NGD, Table 1)^[12]. To identify the best FRET acceptor for HaloTag^(NGD), we selected a panel of 12 different RFPs with different excitation and emission properties. Given that the FRET efficiency depends not only on the distance between the donor and the acceptor fluorophore, but also on their relative orientation[^13], we tested two different domain orientations (HaloTag-RFP or RFP-HaloTag) and two different linker lengths (flexible linker with 14 amino acids or EV linker with 116 amino acids^[14], FIG. 1A). […] The 48 biosensors were transfected into HeLa cells, the HaloTag labeled with NGD, and the cells stimulated with 50 i.iM forskolin (Fsk) and 100 i.iM 3-isobutyl-1-methylxanthine (IBMX, FIG. 1B). […] We used NGD to label cpHaloTag and measured their response upon Fsk/IBMX stimulation. […] We overexpressed the reporters in HeLa cells and monitored changes in PKA activity after stimulation with 50 tM Fsk and 100 tM IBMX. […] We additionally quantified the on and off kinetics of the biosensor. […]

| PKA activity (PKA) | Compound | ERK activity (ERK) | FRET/yellow emission ratio after addition of H89 (protein kinase A (PKA); HeLa cells expressing RFP-HaloTag^(NGD) AKARs, H89 added after 8 minutes of Fsk/IBMX stimulation) | normalized FRET/donor ratio after addition of H89 (protein kinase A (PKA); HeLa cells expressing YFP-HaloTag^(JF669) AKARs, after 50 μM Fsk and 100 μM IBMX) |
| --- | --- | --- | --- | --- |
| rapid increase in PKA activity | CC(C)Cn1c(=O)n(C)c(=O)c2[nH]cnc21 [IBMX, 3-isobutyl-1-methylxanthine] | – | – | – |
| – | O=C(Nc1ccc2[nH]nc(-c3ccncc3)c2c1)[C@@H]1CCN(CC(=O)N2CCN(c3ccc(-c4ncccn4)cc3)CC2)C1 [SCH772984] | only decreased ERK activity | – | – |
| decrease in PKA activity | O=S(=O)(NCCNC/C=C/c1ccc(Br)cc1)c1cccc2cnccc12 [H89] | – | FRET/yellow emission ratio of most biosensors decreased | reversible |

Source: patent US20260235593A1, “FRET BIOSENSOR RECOMBINANT PROTEINS” (The Regents of the University of California, priority 2023, published 2026)
